Reference: patent US12448363B2, “Kinase inhibitors” (Vidya Therapeutics, Inc., priority 2020, dated 2025)

Columns and labels:
[1] = test system: BTK Activity in RAMOS B Cells; assay: Assay to determine BTK activity in RAMOS B cells (anti-IgM, FLIPR Calcium 6); format: cell-based; conditions: EC80 anti-IgM, FLIPR calcium read
Procedure: On the day before assay, Ramos B cells were plated in plating medium (RPMI1640 medium containing 1% FBS and 1× pencillin-streptomycin). On the day of the assay, 2× dye solution was prepared following the manual of the FLIRP Calcium 6 Assay Kit: Dilute the dye with assay buffer (20 mM HEPES in 1×HBSS, pH7.4); Add probenecid to the final concentration of 5 mM; vortex vigorously for 1-2 minutes. Cells were collected by centrifuging, and the pellet was resuspended in plating medium. After counting, cells were resuspended at a density of 3×10^6/ml in plating medium. Equal volume of 2× dye solution was added to the cell suspension. Cells were then plated at 20 μl/well into a 384-well poly-D-lysine coated plate. Plate was centrifuged at 1000 rpm for 3 minutes and then incubated at 37° C. for 2 hours followed by an additional 15-minute incubation at 25° C. Compounds were prepared at 3× concentration in dilution buffer (20 mM HEPES and 0.1% BSA in 1×HBSS, pH 7.4). Serially diluted compound was transferred from source plate to a 384-well compound plate by using an Echo 550 (Labcyte). 20 μl/well compound dilution buffer was added to the compound plate and mixed on plate shaker for 2 mins. 4×EC80 of Anti-IgM (Jackson ImmunoResearch) was prepared in dilution buffer and 20 μl/well was added to a new 384-well compound plate. After 60 mins of incubation at 25° C. in the dark; cell plate, compound plate containing 4×EC80 of anti-IgM and FLIPR tips were placed into FLIPR (Molecular Devices). 10 ul/well of 4×EC80 anti-IgM was transferred to the cell plate by FLIPR. Plates were read for 160 sec with 1 sec interval.
With respect to Ramos activity, Table 9 lists activity as follows: • “A” denotes an IC50 of less than 10 nM; • “B” denotes an IC50 of from 10 nM to less than 100 nM; and • “C” denotes and IC50 of 100 nM or more.

BTK = BTK (Homo sapiens, UniProt Q06187); assay: Assay to determine activity against BTK (EZ reader, FLPeptide); format: biochemical; set-up: purchased Carna; conditions: ATP (1 mM), BTK (2 nM), room temperature for 90 minutes
Procedure: Solutions of compounds (test or control) in DMSO were prepared at the desired concentrations, and serially diluted to 11 concentrations by 3-fold dilution in 384pp-plate using TECAN EVO200. 20 nL of stock were transferred to 384 plate using Echo550. DMSO was used as vehicle control.
Two separate solutions were prepared—an ATP solution containing MgCl2 (10 mM), Brij-35 (0.01%), DTT (2 mM), BSA (0.05%), EGTA (1 mM), HEPE (pH7.5) (50 mM), FLPeptide (6 uM) and ATP (4 mM); and a BTK solution containing MgCl2 (10 mM), Brij-35 (0.01%), DTT (2 mM), BSA (0.05%), EGTA (1 mM), HEPE (pH7.5) (50 mM) and BTK (2.67 nM). […] (Note the final volume of each well was 20 uL containing MgCl2 (10 mM), Brij-35 (0.01%), DTT (2 mM), BSA (0.05%), EGTA (1 mM), HEPE (pH7.5) (50 mM), FLPeptide (1.5 uM), ATP (1 mM) and BTK (2 nM).
The plates were incubated at room temperature for 90 minutes and then stopping buffer added (75 uL, containing 0.5 M EDTA) to terminate the reaction. Samples from each well were analyzed using EZ reader. The % remaining activity was calculated using read conversion ratio (CR) according to the equation: […]
XLFit (equation 201) was used to calculate IC50s by floating both bottom and top.
With respect to BTK activity, Table 4 lists activity as follows: • “A” denotes an IC50 of less than 10 nM, • “B” denotes an IC50 of from 10 nM to less than 100 nM; and • “C” denotes and IC50 of 100 nM or more.

BTK, sequence (Q06187 whole entry): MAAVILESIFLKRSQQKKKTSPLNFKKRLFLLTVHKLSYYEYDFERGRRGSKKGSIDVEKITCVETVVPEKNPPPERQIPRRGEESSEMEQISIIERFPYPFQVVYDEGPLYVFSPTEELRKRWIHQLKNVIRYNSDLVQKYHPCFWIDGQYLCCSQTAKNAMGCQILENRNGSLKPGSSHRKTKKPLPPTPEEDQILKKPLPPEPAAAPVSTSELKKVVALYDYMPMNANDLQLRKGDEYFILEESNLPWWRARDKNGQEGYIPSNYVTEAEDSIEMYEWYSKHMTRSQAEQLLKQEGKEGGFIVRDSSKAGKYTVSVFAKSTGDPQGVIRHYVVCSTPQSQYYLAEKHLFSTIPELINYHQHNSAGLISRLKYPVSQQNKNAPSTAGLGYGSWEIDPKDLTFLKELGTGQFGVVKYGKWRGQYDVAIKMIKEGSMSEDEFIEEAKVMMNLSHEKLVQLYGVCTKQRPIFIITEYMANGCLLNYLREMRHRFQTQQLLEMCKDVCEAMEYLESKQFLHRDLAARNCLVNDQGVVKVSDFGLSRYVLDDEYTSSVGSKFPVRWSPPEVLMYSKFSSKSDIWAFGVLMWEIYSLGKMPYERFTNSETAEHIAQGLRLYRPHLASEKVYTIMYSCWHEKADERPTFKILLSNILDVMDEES

SMILES | IC50 [1] | IC50 (BTK) | IC50 ([1]; Homo sapiens, Ramos)
C=CC(=O)N1CCc2c(cccc2-c2c(F)c(F)c(C(N)=O)c3[nH]c(C)c(Cl)c23)C1 (atropisomer, axis not shown) [Compound 21b, (R)-4-(2-acryloyl-1,2,3,4-tetrahydroisoquinolin-5-yl)-3-chloro-5,6-difluoro-2-methyl-1H-indole-7-carboxamide] | < 0.01 µM | < 0.01 µM | 
C=CC(=O)N1C[C@H]2CCN(c3c(F)cc(C(N)=O)c4[nH]c(C)c(Cl)c34)C[C@@H]2C1 (racemic) [Compound 39, 4-(trans-2-acryloyloctahydro-5H-pyrrolo[3,4-c]pyridin-5-yl)-3-chloro-5-fluoro-2-methyl-1H-indole-7-carboxamide] |  | ≥ 0.1 µM | ≥ 0.1 µM
C=CC(=O)N1CCC2CCN(c3c(F)cc(C(N)=O)c4[nH]c(C)c(Cl)c34)CC21 (single isomer, unassigned) [Compound 29b, 4-(1-acryloyloctahydro-6H-pyrrolo[2,3-c]pyridin-6-yl)-3-chloro-5-fluoro-2-methyl-1H-indole-7-carboxamide] | 0.01 to 0.1 µM | < 0.01 µM | 
C=CC(=O)N1CCCC(c2c(F)cc(C(N)=O)c3[nH]c(C)c(Cl)c23)C1 (stereo not shown) [Compound 2, 4-(1-acryloylpiperidin-3-yl)-3-chloro-5-fluoro-2-methyl-1H-indole-7-carboxamide] |  | < 0.01 µM | < 0.01 µM
C=CC(=O)N1CCCC(c2c(F)c(F)c(C(N)=O)c3[nH]c(C)c(Cl)c23)C1 (stereo not shown) [Compound 3, 4-(1-acryloylpiperidin-3-yl)-3-chloro-5,6-difluoro-2-methyl-1H-indole-7-carboxamide] |  | < 0.01 µM | < 0.01 µM
C=CC(=O)N1CCC=C(c2c(F)c(F)c(C(N)=O)c3[nH]c(C)c(C#N)c23)C1 [Compound 5, 4-(1-acryloyl-1,2,5,6-tetrahydropyridin-3-yl)-3-cyano-5,6-difluoro-2-methyl-1H-indole-7-carboxamide] |  | < 0.01 µM | 0.01 to 0.1 µM
C#CC(=O)N1CCC[C@H](c2c(F)cc(C(N)=O)c3[nH]c(C)c(Cl)c23)C1 [Compound 7, (R)-3-chloro-5-fluoro-2-methyl-4-(1-propioloylpiperidin-3-yl)-1H-indole-7-carboxamide] |  | < 0.01 µM | < 0.01 µM
C#CC(=O)N1CCC[C@@H](c2c(F)cc(C(N)=O)c3[nH]c(C)c(Cl)c23)C1 [Compound 8, (S)-3-chloro-5-fluoro-2-methyl-4-(1-propioloylpiperidin-3-yl)-1H-indole-7-carboxamide] |  | < 0.01 µM | < 0.01 µM
C=CC(=O)N1CC(F)CC(c2c(F)cc(C(N)=O)c3[nH]c(C)c(Cl)c23)C1 (stereo not shown) [Compound 9, 4-(1-acryloyl-5-fluoropiperidin-3-yl)-3-chloro-5-fluoro-2-methyl-1H-indole-7-carboxamide] |  | < 0.01 µM | < 0.01 µM
C=CC(=O)N1CCCC(c2c(F)c(F)c(C(N)=O)c3[nH]c(C)c(C#N)c23)C1 (stereo not shown) [Compound 10, 4-(1-acryloylpiperidin-3-yl)-3-cyano-5,6-difluoro-2-methyl-1H-indole-7-carboxamide] |  | 0.01 to 0.1 µM | 0.01 to 0.1 µM
C=CC(=O)N1CCC[C@H](c2c(F)cc(C(N)=O)c3[nH]c(C)c(C(F)F)c23)C1 [Compound 11, (R)-4-(1-acryloylpiperidin-3-yl)-3-(difluoromethyl)-5-fluoro-2-methyl-1H-indole-7-carboxamide] |  | ≥ 0.1 µM | ≥ 0.1 µM
C=CC(=O)N1CCC[C@@H](c2c(F)cc(C(N)=O)c3[nH]c(C)c(C(F)F)c23)C1 [Compound 12, (S)-4-(1-acryloylpiperidin-3-yl)-3-(difluoromethyl)-5-fluoro-2-methyl-1H-indole-7-carboxamide] |  | ≥ 0.1 µM | ≥ 0.1 µM

More lines, now with the values ahead:

IC50 [1] | IC50 (BTK) | IC50 ([1]; Homo sapiens, Ramos) | SMILES
< 0.01 µM | < 0.01 µM |  | C=CC(=O)N1CCc2c(cccc2-c2c(F)cc(C(N)=O)c3[nH]c(C)c(F)c23)C1 (atropisomer, axis not shown) [Compound 20e, (S)-4-(2-acryloyl-1,2,3,4-tetrahydroisoquinolin-5-yl)-3,5-difluoro-2-methyl-1H-indole-7-carboxamide]
≥ 0.1 µM | ≥ 0.1 µM |  | C=CC(=O)N1CCc2c(cccc2-c2c(F)cc(C(N)=O)c3[nH]c(C)c(F)c23)C1 (atropisomer, axis not shown) [Compound 20f, (R)-4-(2-acryloyl-1,2,3,4-tetrahydroisoquinolin-5-yl)-3,5-difluoro-2-methyl-1H-indole-7-carboxamide]
≥ 0.1 µM | ≥ 0.1 µM |  | C=CC(=O)N1CCc2c(cccc2-c2c(F)cc(C(N)=O)c3[nH]c(C)c(C#N)c23)C1 (atropisomer, axis not shown) [Compound 20h, (S)-4-(2-acryloyl-1,2,3,4-tetrahydroisoquinolin-5-yl)-3-cyano-5-fluoro-2-methyl-1H-indole-7-carboxamide]
0.01 to 0.1 µM | < 0.01 µM |  | C=CC(=O)N1CCc2c(cccc2-c2c(F)cc(C(N)=O)c3[nH]c(C)c(C#N)c23)C1 (atropisomer, axis not shown) [Compound 20i, (R)-4-(2-acryloyl-1,2,3,4-tetrahydroisoquinolin-5-yl)-3-cyano-5-fluoro-2-methyl-1H-indole-7-carboxamide]
≥ 0.1 µM | ≥ 0.1 µM |  | C=CC(=O)N1CCc2c(cccc2-c2c(F)c(F)c(C(N)=O)c3[nH]c(C)c(Cl)c23)C1 (atropisomer, axis not shown) [Compound 21c, (S)-4-(2-acryloyl-1,2,3,4-tetrahydroisoquinolin-5-yl)-3-chloro-5,6-difluoro-2-methyl-1H-indole-7-carboxamide]
≥ 0.1 µM | ≥ 0.1 µM |  | C=CC(=O)N1CCc2c(cccc2-c2c(F)cc(C(N)=O)c3[nH]c(C)c(Cl)c23)C1 (single isomer, unassigned) [Compound 20c]
≥ 0.1 µM | ≥ 0.1 µM |  | C=CC(=O)N1CCc2c(-c3c(F)cc(C(N)=O)c4[nH]c(C)c(Cl)c34)cccc2[C@H]1C (single isomer, unassigned) [Compound 22b]
 | ≥ 0.1 µM | ≥ 0.1 µM | C=CC(=O)N1CCc2c(-c3c(F)cc(C(N)=O)c4[nH]c(C)c(Cl)c34)cccc2[C@@H]1C (single isomer, unassigned) [Compound 22c]
≥ 0.1 µM | ≥ 0.1 µM |  | C=CC(=O)N1CCc2c(-c3c(F)cc(C(N)=O)c4[nH]c(C)c(Cl)c34)cccc2[C@@H]1C (single isomer, unassigned) [Compound 22d]
< 0.01 µM | < 0.01 µM |  | C=CC(=O)N1CCc2c(-c3c(F)cc(C(N)=O)c4[nH]c(C)c(Cl)c34)cccc2[C@H]1C (single isomer, unassigned) [Compound 22e]
 | 0.01 to 0.1 µM | ≥ 0.1 µM | C=CC(=O)N1Cc2cccc(-c3c(F)cc(C(N)=O)c4[nH]c(C)c(Cl)c34)c2C2(CC2)C1 (single isomer, unassigned) [Compound 24c]
≥ 0.1 µM | ≥ 0.1 µM |  | C=CC(=O)N1Cc2cccc(-c3c(F)cc(C(N)=O)c4[nH]c(C)c(Cl)c34)c2C2(CC2)C1 (single isomer, unassigned) [Compound 24d]
 | ≥ 0.1 µM | ≥ 0.1 µM | C=CC(=O)N1CCCc2c(cccc2-c2c(F)cc(C(N)=O)c3[nH]c(C)c(Cl)c23)C1 (single isomer, unassigned) [Compound 25c]
≥ 0.1 µM | 0.01 to 0.1 µM |  | C=CC(=O)N1CCCc2c(cccc2-c2c(F)cc(C(N)=O)c3[nH]c(C)c(Cl)c23)C1 (single isomer, unassigned) [Compound 25d]
